From patent publication US9938232B2, “LED photoinitiators” (SUN CHEMICAL CORPORATION, priority 2014, dated 2018)

How the values were obtained:
[1] = Solubility in water and organic solvents (observation); type: physicochemical
Procedure: After cooling, the pH of the solution was adjusted to 4 with about 100 ml of a 50 wt % aqueous solution of acetic acid to precipitate a yellow solid. The solid was collected by filtration and dissolved in a saturated aqueous solution (100 ml) of sodium carbonate. Insoluble material was removed by filtration and the pH of the filtrate was adjusted to 5 to 6 with aqueous acetic acid to precipitate a yellow solid. The solid was collected by filtration and re-crystallized from 130 ml ethanol.

[2] = Solubility in multifunctional acrylates; type: physicochemical; conditions: 10 and 20 weight % in PPTTA, TMPTA and EO-TMPTA, stirred 10 minutes at 45° C.
Procedure: • Mn: 1050 Da, Mw 1360 Da • IR: v [cm-1]: 3318, 2930, 2861, 1716 (s), 1641, 1590 (vs), 1525, 1450, 1364, 1284, 1228, 1146, 1068, 927, 826, 770 Solubility: • The product as obtained according to Example 10 was added to different multifunctional acrylates to check solubility. Propoxylated pentaerythritol tetraacrylate (SR 494 LM, Sartomer company) (PPTTA), trimethylol propane triacrylate (SR 351M, Sartomer company) (TMPTA) and ethoxylated trimethylol propane triacrylate (Ebecryl LEO 10501, Allnex company) (EO-TMPTA) were used. The compound of example 10 was added in amounts of 10 and 20 weight % to each of the acrylates and stirred for 10 minutes at 45° C. In all cases (even at 20 weight %), clear, intense yellow, transparent mixtures were obtained.

UV-spectra measurement = type: physicochemical
Procedure: Spectra were acquired using a Unicam UV-2 UV/VIS spectro-photometer. All absorption spectra were obtained using 1 cm cuvettes, scanning within the 200-800 nm range. Solutions were prepared in a 100 cm^3 volumetric flask, and, if required, subsequently diluted so that a maximum absorbance of less than 2 was obtained. From the absorption the molar extinction coefficient e was calculated in liter*mol^−1*cm^−1.

With `CN(C)c1ccc(C(=O)c2ccc(N(C)C)cc2C(=O)O)cc1` [Example 2, 5-(dimethylamino)-2-[4-(dimethylamino)benzoyl]-benzoic acid] the “Solubility in DMSO” value ([1]; DMSO) was “soluble in DMSO” and the melting point was 269 to 272 °C.
For `CCCCOCC(COC(=O)c1cc(N(C)C)ccc1C(=O)c1ccc(N(C)C)cc1)OC(=O)NCCCCCCNC(=O)OC(COCCCC)COC(=O)c1cc(N(C)C)ccc1C(=O)c1ccc(N(C)C)cc1` (stereo not shown) [Example 10], the “Solubility in multifunctional acrylates” value [2] was “very good solubility”.
For `CN(C)c1ccc(C(=O)c2ccc(N(C)C)cc2C(=O)[O-])cc1.[K+]` [Example 6, 5-(dimethylamino)-2-[4-(dimethylamino)benzoyl]-benzoic acid potassium salt], the “UV-spectroscopy: λmax (H2O)” value (UV-spectra measurement; in H2O) was 365 nm, the Molar extinction coefficient (UV-spectra measurement; in water) was 36192 L/mol/cm and the “Solubility in methylene chloride” value ([1]; methylene chloride) was “limited solubility in methylene chloride”. The Solubility in water ([1]; water) was “good solubility in water”.
